Source: patent publication US20240368667A1, “RAPID, LABEL-FREE ANTIBIOTIC SUSCEPTIBILITY OF BACTERIA DIRECTLY FROM POSITIVE BLOOD OR BODILY FLUID/CULTURE” (priority 2021, published 2024)
In brackets after ≈: the same amount, converted by molar mass. One block for each compound: values may come before it.

How the values were obtained:
E. coli 79 = test: Microbroth dilution MIC with and without sucrose recovery; type: cell-based, Escherichia coli; conditions: MIC given as multiple of S/I/R; for minimum inhibitory concentration (MIC), Standard: E. coli 79 recovered by standard plating
Method: (§1) Microbroth dilution for minimum inhibitory concentrations (MIC) with and without sucrose recovery. To isolate bacteria without sucrose, culture media from positive BacT/alert FA PLUS aerobic culture bottles (bioMérieux, Durham, NC) was serially diluted and plated onto LB agar (Lennox; Sigma-Aldrich, St. Louis, MO). Bacterial suspensions were prepared by resuspending colonies in CAMHB with incubation on a MaxQ 4000 incubator shaker (Thermo Fisher Scientific, Waltham, MA) at 37° C. and ˜225 rpm for 3 hours. Bacteria recovered via Method 2 were diluted 10-fold in CAMHB. Following incubation or sucrose recovery and dilution, bacterial suspensions were adjusted to ˜0.004 OD600 with CAMHB and a 50-μL aliquot distributed to each well of a 96-well plate containing CAMHB with and without clinically relevant antibiotics (2-fold dilution series). Gram-negative plates included: ceftazidime (3rd generation cephalosporin, RPI corp., Mount Prospect, IL), cefepime (4th generation cephalosporin, Chem-Impex Int'l, Wood Dale, IL), meropenem (carbapenem, Tokyo Chemical Industry, Tokyo, Japan), levofloxacin (quinolone, Alfa Aesar, Haverhill, MA), and tobramycin (aminoglycoside, MP Biomedicals LLC, Santa Ana, CA), while S. aureus plates contained: oxacillin (beta-lactam, Sigma-Aldrich, St. Louis, MO), vancomycin (glycopeptide, Santa Cruz Biotechnology, Dallas, TX), erythromycin (macrolide, Sigma-Aldrich, St. Louis, MO), clindamycin ([…]), and ciprofloxacin (fluoroquinolone, Sigma-Aldrich, St. Louis, MO). Antibiotic plates were incubated at 37° C. for 16-20 hours (gram-negative) or 35° C. for 24 hours (S. aureus), at which time, plates were removed from the incubator and visually inspected for bacterial growth. The MIC was set at the lowest antibiotic concentration at which no growth was detected.
(§2) Influence of Sucrose on Bacterial MIC. To rule out the potential effect of sucrose exposure in bacterial antibiotic susceptibility, microbroth dilution studies were performed on bacteria recovered using standard practices (i.e. plating following positive blood culture) and through selective lysis coupled with centrifugation through the sucrose cushion (Method 2).

P. aeruginosa 77 = test: as above; type: cell-based, Pseudomonas aeruginosa; conditions: MIC given as multiple of S/I/R
Method: as §1, §2

S. aureus 78 = test: as above; type: cell-based, Staphylococcus aureus; conditions: MIC given as multiple of S/I/R; for minimum inhibitory concentration (MIC), Standard: S. aureus 78 recovered by standard plating; for minimum inhibitory concentration (MIC), Sucrose: S. aureus 78 recovered through sucrose (Method 2)
Method: as §1, §2

S. aureus [1] = test: Direct flow cytometric AST (high-throughput flow cytometry, HTFC) of sucrose-recovered bacteria; type: cell-based, Staphylococcus aureus; conditions: for MIC: Staphylococcus aureus
Method: AST workflow using bacteria recovered directly from positive blood culture. A 1-mL aliquot of bacteria recovered using separation method 2 was diluted 10-fold in CAMHB, the OD600 adjusted to ˜0.01, and a 50 μL aliquot distributed into each well of a 96-well plate containing CAMHB with and without ceftazidime, tobramycin, and either meropenem (E. coli and P. aeruginosa) or oxacillin (S. aureus). Following Clinical and Laboratory Standards Institute (CLSI) guidelines^33, 2% sodium chloride (NaCl) was present in wells containing oxacillin to assist in the detection of methicillin-resistant S. aureus (MRSA). […] To account for observed differences in doubling and lag times, E. coli and P. aeruginosa were incubated for 4 hours at 37° C., while S. aureus was incubated for 9 hours at 35° C. After incubation, antibiotic plates were removed from the incubator and directly stored on ice (i.e. no post-processing) until high-throughput flow cytometry (BD LSRFortessa with HTS-system, BD, Franklin Lakes, NJ). No-antibiotic controls and antibiotic-treated samples were handled identically.
MIC Determination by flow cytometry. Because antibiotic effects are observed in both the position of scatter signatures (morphology changes) and count rates (growth inhibition), a modified count rate, accounting for scatter position, was used to evaluate susceptibility. Briefly, no-antibiotic control populations (triplicate) were pooled, binned, and a convex hull boundary set at 1-standard deviation above the background (not including bins with zero counts) was drawn. […] The overlap ratio, measuring changes in morphology, was then computed by dividing the number of sample events within the no-antibiotic control boundary by the total number of events within the sample. As an increase in count rate attributed to viable bacteria in antibiotic-treated samples is not scientifically meaningful, the fractional overlap was multiplied by the minimum of the control and sample count rates to generate a modified count rate accounting for antibiotic-induced morphological changes. All modified count rates were normalized by the average of the no-antibiotic controls. For automatic MIC determination, normalized count rates corresponding to n (index of predicted MIC), n+1, n+2 were iteratively fit to a linear function with a frameshift of n+1 between iterations (FIGS. 8 and 9). […] A threshold of −0.01 instead of zero was used to mitigate the influence of small fluctuations in normalized count rates on susceptibility determinations.

S. aureus [2] = test: Broth microdilution (BMD) MIC; type: cell-based, Staphylococcus aureus; conditions: for MIC: Staphylococcus aureus
Method: as §1

E. coli = test: Influence of sucrose on bacterial growth (OD600); type: cell-based, Escherichia coli; conditions: E. coli recovered in 55% sucrose (w/v), undiluted, 37° C. with shaking
Method: (§3) Influence of sucrose on bacterial growth. To determine the effects of sucrose concentration on bacterial growth, bacteria recovered from positive blood cultures following Method 2 were diluted 1-fold (i.e. undiluted), 2-fold, 5-fold, 10-fold, 20-fold, and 100-fold in fresh CAMHB within a 96-well plate. The CAMHB broth inoculated with a fresh overnight culture was used as a positive control. Following dilution, samples were incubated at 37° C. with shaking, and growth was monitored at 15-min intervals via OD600 measurements using a plate reader (Hidex, Turku, Finland). To further investigate the effects of sucrose on bacterial growth, recovered bacteria-sucrose solutions were diluted 10-fold (optimal dilution factor) and growth was compared to control cultures inoculated with the original blood culture, an overnight culture, or colony resuspension without sucrose exposure. Growth (37° C. with shaking) was monitored via OD600 measurements using a Hidex plate reader.
(§4) Impact of sucrose on bacterial growth. […] Recovered bacteria within 55% sucrose (w/v) were directly or 2-fold (27.5%), 5-fold (11%), 10-fold (5.5%), 20-fold (2.75%), and 100-fold (0.55%) diluted in CAMHB and growth monitored on a plate reader set at 37° C. with medium shaking. […]

P. aeruginosa = test: Influence of sucrose on bacterial growth (OD600); type: cell-based, Pseudomonas aeruginosa; conditions: P. aeruginosa recovered in 55% sucrose (w/v), undiluted, 37° C. with shaking
Method: as §3, §4

S. aureus [3] = test: Influence of sucrose on bacterial growth (OD600); type: cell-based, Staphylococcus aureus; conditions: S. aureus recovered in 55% sucrose (w/v), undiluted, 37° C. with shaking
Method: as §3, §4

SMILES: CC[C@H]1OC(=O)[C@H](C)[C@@H](O[C@H]2C[C@@](C)(OC)[C@@H](O)[C@H](C)O2)[C@H](C)[C@@H](O[C@@H]2O[C@H](C)C[C@H](N(C)C)[C@H]2O)[C@](C)(O)C[C@@H](C)C(=O)[C@H](C)[C@@H](O)[C@]1(C)O [Erythromycin, erythromycin]
minimum inhibitory concentration (MIC), Standard (S. aureus 78): 4R
minimum inhibitory concentration (MIC), Sucrose (S. aureus 78): 2R

SMILES: Cc1onc(-c2ccccc2)c1C(=O)N[C@@H]1C(=O)N2[C@@H]1SC(C)(C)[C@@H]2C(=O)O [Oxacillin, oxacillin]
susceptibility classification, HTFC (S. aureus [1]; S. aureus ATCC25923, oxacillin 9 hours (35° C.)): (MSSA)
susceptibility classification, HTFC (S. aureus [1]; S. aureus ATCC29213, oxacillin 9 hours (35° C.)): (MSSA)
susceptibility classification, HTFC (S. aureus [1]; S. aureus ATCC43300, oxacillin 9 hours (35° C.)): (MRSA)
susceptibility classification, HTFC (S. aureus [1]; S. aureus Blood Culture A, oxacillin 9 hours (35° C.)): (MSSA)
susceptibility classification, HTFC (S. aureus [1]; S. aureus Blood Culture B, oxacillin 9 hours (35° C.)): (MRSA)
susceptibility classification, HTFC (S. aureus [1]; S. aureus NRS382, oxacillin 9 hours (35° C.)): MRSA
susceptibility classification, HTFC (S. aureus [1]; S. aureus NRS385, oxacillin 9 hours (35° C.)): MRSA
MIC (S. aureus [1]; 9 h, read-out: Minimum inhibitory concentration, HTFC, S. aureus Blood Culture A, oxacillin 9 hours (35° C.)): 0.125 µg/mL (≈ 0.311 µM)
MIC (S. aureus [1]; 9 h, read-out: Minimum inhibitory concentration, HTFC, S. aureus Blood Culture B, oxacillin 9 hours (35° C.)): 4 µg/mL (≈ 9.96 µM)
MIC (S. aureus [1]; ATCC25923, 9 h, read-out: Minimum inhibitory concentration, HTFC, S. aureus ATCC25923, oxacillin 9 hours (35° C.)): 0.25 µg/mL (≈ 0.623 µM)
MIC (S. aureus [1]; ATCC29213, 9 h, read-out: Minimum inhibitory concentration, HTFC, S. aureus ATCC29213, oxacillin 9 hours (35° C.)): 2 µg/mL (≈ 4.98 µM)
MIC (S. aureus [1]; ATCC43300, 9 h, read-out: Minimum inhibitory concentration, HTFC, S. aureus ATCC43300, oxacillin 9 hours (35° C.)): > 4 µg/mL
MIC (S. aureus [1]; S. aureus NRS382, oxacillin 9 hours (35° C.), read-out: Minimum inhibitory concentration, HTFC): > 4 µg/mL
MIC (S. aureus [1]; S. aureus NRS385, oxacillin 9 hours (35° C.), read-out: Minimum inhibitory concentration, HTFC): > 4 µg/mL
susceptibility classification, BMD (S. aureus [2]; S. aureus ATCC25923): (MSSA)
susceptibility classification, BMD (S. aureus [2]; S. aureus ATCC29213): (MSSA)
susceptibility classification, BMD (S. aureus [2]; S. aureus ATCC43300): (MRSA)
susceptibility classification, BMD (S. aureus [2]; S. aureus Blood Culture A): (MSSA)
susceptibility classification, BMD (S. aureus [2]; S. aureus Blood Culture B): (MRSA)
susceptibility classification, BMD (S. aureus [2]; S. aureus NRS382): (MRSA)
susceptibility classification, BMD (S. aureus [2]; S. aureus NRS385): (MRSA)
MIC (S. aureus [2]; ATCC25923, read-out: Minimum inhibitory concentration, BMD, S. aureus ATCC25923): 0.125 µg/mL (≈ 0.311 µM)
MIC (S. aureus [2]; ATCC29213, read-out: Minimum inhibitory concentration, BMD, S. aureus ATCC29213): 0.25 µg/mL (≈ 0.623 µM)
MIC (S. aureus [2]; ATCC43300, read-out: Minimum inhibitory concentration, BMD, S. aureus ATCC43300): 16 µg/mL (≈ 39.9 µM)
MIC (S. aureus [2]; S. aureus NRS382, read-out: Minimum inhibitory concentration, BMD): > 16 µg/mL
MIC (S. aureus [2]; S. aureus NRS385, read-out: Minimum inhibitory concentration, BMD): > 16 µg/mL
MIC (S. aureus [2]; read-out: Minimum inhibitory concentration, BMD, S. aureus Blood Culture A): 0.125 µg/mL (≈ 0.311 µM)
MIC (S. aureus [2]; read-out: Minimum inhibitory concentration, BMD, S. aureus Blood Culture B): > 16 µg/mL
minimum inhibitory concentration (MIC), Standard (S. aureus 78): 4R
minimum inhibitory concentration (MIC), Sucrose (S. aureus 78): 4R

SMILES: CN[C@H](CC(C)C)C(=O)N[C@H]1C(=O)N[C@@H](CC(N)=O)C(=O)N[C@H]2C(=O)N[C@H]3C(=O)N[C@H](C(=O)N[C@H](C(=O)O)c4cc(O)cc(O)c4-c4cc3ccc4O)[C@H](O)c3ccc(c(Cl)c3)Oc3cc2cc(c3O[C@@H]2O[C@H](CO)[C@@H](O)[C@H](O)[C@H]2O[C@H]2C[C@](C)(N)[C@H](O)[C@H](C)O2)Oc2ccc(cc2Cl)[C@H]1O [Vancomycin, vancomycin]
minimum inhibitory concentration (MIC), Standard (S. aureus 78): ¼S
minimum inhibitory concentration (MIC), Sucrose (S. aureus 78): ⅛S

SMILES: OC[C@H]1O[C@@](CO)(O[C@H]2O[C@H](CO)[C@@H](O)[C@H](O)[C@H]2O)[C@@H](O)[C@@H]1O [sucrose, D (+)-sucrose]
bacterial growth (OD600) (E. coli): inhibiting growth completely
bacterial growth (OD600) (P. aeruginosa): inhibiting growth completely
bacterial growth (OD600) (S. aureus [3]): inhibiting growth completely

Next, values leading:

minimum inhibitory concentration (MIC), Standard (E. coli 79): 2R
minimum inhibitory concentration (MIC), Standard (P. aeruginosa 77; P. aeruginosa 77 recovered by standard plating): ½S
minimum inhibitory concentration (MIC), Sucrose (P. aeruginosa 77; P. aeruginosa 77 recovered through sucrose (Method 2)): ¼S
SMILES: CO/N=C(\C(=O)N[C@@H]1C(=O)N2C(C(=O)[O-])=C(C[N+]3(C)CCCC3)CS[C@H]12)c1csc(N)n1 [Cefepime, cefepime]

minimum inhibitory concentration (MIC), Standard (S. aureus 78): 4R
minimum inhibitory concentration (MIC), Sucrose (S. aureus 78): 4R
SMILES: CCC[C@@H]1C[C@@H](C(=O)N[C@@H]([C@H]2O[C@H](SC)[C@H](O)[C@@H](O)[C@H]2O)[C@H](C)Cl)N(C)C1 [Clindamycin, clindamycin]

minimum inhibitory concentration (MIC), Standard (E. coli 79): >4R
minimum inhibitory concentration (MIC), Sucrose (E. coli 79; E. coli 79 recovered through sucrose (Method 2)): 4R
SMILES: C[C@H]1COc2c(N3CCN(C)CC3)c(F)cc3c(=O)c(C(=O)O)cn1c23 [Levofloxacin, levofloxacin]
